Measured values as given in ChEMBL document CHEMBL1201862, “PubChem BioAssay data set” (2004).
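Each compound was tested at five concentrations against cells in 96-well plates for 48 hours. Abbreviation: GI50, concentration required for 50% inhibition of growth.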 Activity calls are given as the source filed them. Cut-off read from the data, not from the text of the source: active = GI50 up to about 1.1 µM and inactive = higher. Square brackets hold non-standard residues; d marks the D form. Peptide text beside a SMILES is read from it. ξ: configuration not given here. ξ2Thi = NC(Cc1cccs1)C(=O)O; ξR = N=C(N)NCCCC(N)C(=O)O; ξI = CCC(C)C(N)C(=O)O; ξL = CC(C)CC(N)C(=O)O; ξK = NCCCCC(N)C(=O)O; ξT = CC(O)C(N)C(=O)O; ξA = CC(N)C(=O)O

Experiments:
Experiment in all cases: NCI anticancer screen, dose series, 48 h
[1] = tested on: A498
[2] = tested on: A549
[3] = tested on: CCRF-CEM
[4] = tested on: HCT-15
[5] = tested on: HOP-62
[6] = tested on: HT-29
[7] = tested on: K562
[8] = tested on: M14
[9] = tested on: MDA-MB-435
[10] = tested on: NCI-H226
[11] = tested on: NCI-H460
[12] = tested on: NCI/ADR-RES
[13] = tested on: OVCAR-5
[14] = tested on: SK-MEL-28
[15] = tested on: SK-MEL-5
[16] = tested on: SK-OV-3
[17] = tested on: SNB-75
[18] = tested on: TK-10
[19] = tested on: U-251
[20] = tested on: UACC-257

Compound | GI50 [1] | GI50 [2] | GI50 [3] | GI50 [4] [µM] | GI50 [5] | GI50 [6] | GI50 [7] | GI50 [8] | GI50 [9] | GI50 [10] | GI50 [11] | GI50 [12] | GI50 [13] | GI50 [14] | GI50 [15] | GI50 [16] | GI50 [17] | GI50 [18] | GI50 [19] | GI50 [20]
Cc1ccc(S(=O)(=O)N/C(=N\O)Nc2ccc(Cl)c(Cl)c2)cc1 | 10.3 µM (inactive) | 13.3 µM (inactive) | 2.42 µM (inactive) | 6.67 | 14.1 µM (inactive) | 12.8 µM (inactive) | 13 µM (inactive) | 5.58 µM (inactive) | 3.48 µM (inactive) | 17.1 µM (inactive) | 9.95 µM (inactive) | 12.8 µM (inactive) | 3.2 µM (inactive) | 3.34 µM (inactive) | 2.05 µM (inactive) | 15 µM (inactive) | 5.14 µM (inactive) | 14.6 µM (inactive) | 4.36 µM (inactive) | 4.68 µM (inactive)
C(/Cc1ccc2c(c1)OCO2)=N\N=C1NCCCN1 | 19.5 µM (inactive) | 36.7 µM (inactive) | 48.5 µM (inactive) | > 100 | 28.4 µM (inactive) | 65.5 µM (inactive) | 35.1 µM (inactive) | 32.4 µM (inactive) | > 100 µM (inactive) | > 100 µM (inactive) | 19 µM (inactive) | 84.1 µM (inactive) | 59 µM (inactive) | > 100 µM (inactive) | 25 µM (inactive) | 42.1 µM (inactive) | 15.2 µM (inactive) | > 100 µM (inactive) | 75.7 µM (inactive) | > 100 µM (inactive)
O=C(O)c1cccc(SSc2cccc(C(=O)O)c2)c1 | > 100 µM (inactive) | > 100 µM (inactive) | 28.8 µM (inactive) | > 100 | > 100 µM (inactive) | > 100 µM (inactive) | > 100 µM (inactive) | > 100 µM (inactive) | > 100 µM (inactive) | > 100 µM (inactive) | > 100 µM (inactive) | > 100 µM (inactive) | > 100 µM (inactive) | > 100 µM (inactive) | > 100 µM (inactive) | > 100 µM (inactive) | > 100 µM (inactive) | > 100 µM (inactive) | > 100 µM (inactive) | > 100 µM (inactive)
CCC(C)C(NC(=O)C(Cc1cccs1)NC(=O)C(CC(C)C)NC(=O)C(CC(C)C)NC(=O)C(CCCCN)NC(=O)C(CCCN=C(N)N)NC(=O)[C@H](Cc1ccc(O)cc1)NC(=O)C(NC(=O)C(C)NC(=O)C(N)CC(C)C)C(C)O)C(=O)NC(CC(C)C)C(N)=O (stereo not given in full) (H-[ξL][ξA][ξT]Y[ξR][ξK][ξL][ξL][ξ2Thi][ξI][ξL]-NH2) | > 50 µM (inactive) | > 50 µM (inactive) | > 50 µM (inactive) | > 50 | > 50 µM (inactive) | > 50 µM (inactive) | > 50 µM (inactive) | > 50 µM (inactive) | > 50 µM (inactive) | > 50 µM (inactive) | > 50 µM (inactive) | > 50 µM (inactive) | > 50 µM (inactive) | > 50 µM (inactive) | > 50 µM (inactive) | > 50 µM (inactive) | > 50 µM (inactive) | > 50 µM (inactive) | > 50 µM (inactive) | > 50 µM (inactive)
CCOC(=O)c1nnsc1NC(=O)NN | > 100 µM (inactive) | > 100 µM (inactive) | > 100 µM (inactive) | > 100 | > 100 µM (inactive) | > 100 µM (inactive) | 41.1 µM (inactive) | > 100 µM (inactive) | > 100 µM (inactive) | > 100 µM (inactive) | > 100 µM (inactive) | > 100 µM (inactive) | > 100 µM (inactive) | > 100 µM (inactive) | > 100 µM (inactive) | > 100 µM (inactive) | > 100 µM (inactive) | > 100 µM (inactive) | > 100 µM (inactive) | > 100 µM (inactive)
O=C(CC1C=Cc2ccccc2N1C(=O)c1ccccc1)c1ccccc1 (stereo not given) | 28.9 µM (inactive) | 22.5 µM (inactive) | 36.1 µM (inactive) | 26.2 | 30.6 µM (inactive) | 17.1 µM (inactive) | 19.9 µM (inactive) | 20.1 µM (inactive) | 20.4 µM (inactive) | 34.4 µM (inactive) | 22.8 µM (inactive) | 25.8 µM (inactive) | 25.5 µM (inactive) | 30.1 µM (inactive) | 13.3 µM (inactive) | 30.9 µM (inactive) | 45.2 µM (inactive) | 36.3 µM (inactive) | 23.1 µM (inactive) | 20.5 µM (inactive)
COc1ccc2c(c1)-c1c(c3cc(OC)ccc3n1CCN1CCOCC1)CC2 | 46.7 µM (inactive) | 23.9 µM (inactive) | 11.5 µM (inactive) | 14.5 | 42.6 µM (inactive) | 13.5 µM (inactive) | 13.2 µM (inactive) | 15.8 µM (inactive) | 49.1 µM (inactive) | 14.7 µM (inactive) | 22.8 µM (inactive) | 20.7 µM (inactive) | 25.4 µM (inactive) | 57.1 µM (inactive) | 25.4 µM (inactive) | > 100 µM (inactive) | 19.8 µM (inactive) | 32.7 µM (inactive) | 29.4 µM (inactive) | 33.4 µM (inactive)
NCC(Cc1ccccc1)P(=O)(O)O (stereo not given) | > 100 µM (inactive) | > 100 µM (inactive) | > 100 µM (inactive) | > 100 | > 100 µM (inactive) | > 100 µM (inactive) | > 100 µM (inactive) | > 100 µM (inactive) | > 100 µM (inactive) | > 100 µM (inactive) | > 100 µM (inactive) | > 100 µM (inactive) | > 100 µM (inactive) | > 100 µM (inactive) | > 100 µM (inactive) | > 100 µM (inactive) | > 100 µM (inactive) | > 100 µM (inactive) | > 100 µM (inactive) | > 100 µM (inactive)
C=C(C)C(CC=C(C)C)Cc1c(O)cc(OC)c2c1OC(c1ccc(O)cc1O)C(O)C2=O (stereo not given) | 16.5 µM (inactive) | 19.5 µM (inactive) | 50.8 µM (inactive) | 17 | 17.3 µM (inactive) | 20.7 µM (inactive) | > 100 µM (inactive) | 22 µM (inactive) | 16.9 µM (inactive) | 18.3 µM (inactive) | 15.5 µM (inactive) | 22.9 µM (inactive) | 17.7 µM (inactive) | 21.1 µM (inactive) | 18.5 µM (inactive) | 16.8 µM (inactive) | 17.2 µM (inactive) | 21.8 µM (inactive) | 14.5 µM (inactive) | 17.7 µM (inactive)
COc1cc2cc(C(=O)N3CC(CCl)c4c3cc(N)c3ccccc43)[nH]c2cc1OCCN(C)C (stereo not given) | 0.00546 µM (active) | < 0.005 µM (active) | < 0.005 µM (active) | 0.00553 | < 0.005 µM (active) | 0.5 µM (active) | < 0.005 µM (active) | < 0.005 µM (active) | < 0.005 µM (active) | 0.00528 µM (active) | < 0.005 µM (active) | 0.00931 µM (active) | 0.00713 µM (active) | 0.00705 µM (active) | < 0.005 µM (active) | 0.0105 µM (active) | < 0.005 µM (active) | 0.00522 µM (active) | < 0.005 µM (active) | 0.00993 µM (active)
COC(=O)[C@H](CCSC)NC(=O)c1ccc(CNC(=O)/C(C)=C/c2ccccc2)cc1 | > 100 µM (inactive) | 52 µM (inactive) | > 100 µM (inactive) | > 100 | 21.8 µM (inactive) | 21 µM (inactive) | > 100 µM (inactive) | 30.8 µM (inactive) | 74.5 µM (inactive) | > 100 µM (inactive) | 26.6 µM (inactive) | 25.9 µM (inactive) | 97.1 µM (inactive) | 24.7 µM (inactive) | 34.8 µM (inactive) | 39.4 µM (inactive) | 3.81 µM (inactive) | > 100 µM (inactive) | 31 µM (inactive) | 20.7 µM (inactive)
NC(=O)C1=CC2C3C=CC2(O)C(=O)OC3O1 (stereo not given) | 32.7 µM (inactive) | 34.7 µM (inactive) | 1.8 µM (inactive) | 3.39 | 9.06 µM (inactive) | 2.92 µM (inactive) | 7.29 µM (inactive) | 2.97 µM (inactive) | 3.27 µM (inactive) | 2.31 µM (inactive) | 17.9 µM (inactive) | 2.46 µM (inactive) | 22.8 µM (inactive) | 2.34 µM (inactive) | 2.38 µM (inactive) | 13.5 µM (inactive) | 7.98 µM (inactive) | 4.07 µM (inactive) | 8.59 µM (inactive) | 2.58 µM (inactive)
COC(=O)c1cc2c3c(cc(NCCN)c2[nH]1)N(C(=O)c1cc2cc(OC)c(OC)c(OC)c2[nH]1)CC3CCl (stereo not given) | 0.131 µM (active) | 0.145 µM (active) | 0.0174 µM (active) | 0.573 | 0.17 µM (active) | 0.0277 µM (active) | 0.0247 µM (active) | 0.118 µM (active) | 0.152 µM (active) | 0.0177 µM (active) | 0.0502 µM (active) | 0.358 µM (active) | 0.0393 µM (active) | 0.109 µM (active) | 0.0313 µM (active) | 0.273 µM (active) | 0.0382 µM (active) | 0.366 µM (active) | 0.0144 µM (active) | 0.214 µM (active)
C=Cc1nc2c(Cl)ncnc2n1Cc1ccccc1 | 7.13 µM (inactive) | 11.2 µM (inactive) | 2.74 µM (inactive) | 2.51 | 3.34 µM (inactive) | 2.62 µM (inactive) | 3.05 µM (inactive) | 3.88 µM (inactive) | 2.65 µM (inactive) | 3.08 µM (inactive) | 7.8 µM (inactive) | 3.7 µM (inactive) | 14.7 µM (inactive) | 3.1 µM (inactive) | 2.54 µM (inactive) | 15.3 µM (inactive) | 13.6 µM (inactive) | 2.11 µM (inactive) | 10.5 µM (inactive) | 2.59 µM (inactive)
